Measurements published in patent publication EP2815749A1, “Solid form of 4-amino-2-(2,6-dioxopiperidine-3-yl)isoindoline-1,3-dione having specified X-ray diffraction pattern” (IP Gesellschaft für Management mbH, priority 2013, dated 2014).
Structures can show the parent of a compound that is named as a salt. Where two headings read alike, the source gives them in different places. Blank lines part the entries; values can stand above or below the compound they belong to.

Columns and labels:
physchem = settings: thermodynamic from solid
[1] = water; listed as free base
Protocol: Hygroscopicity: Sorption/desorption isotherms were measured using the VT1100 humidity microbalance (VTI Corporation, Hialeah, FL, USA). Measurements were carried out at 25°C. Samples were dried under N2 flow at 25°C. […] Concentration in supernatant was measured by gravimetry for organic solvents and by HPLC from aqueous solvents and propylene glycol.

[2] = In vivo pharmacokinetics of Compound (VI) free base and hemisulfate salt capsules; settings: dogs, oral capsule, 150 mg of Compound (VI) (or equivalent), after pretreatment with famotidine (40 mg)
Protocol: An aliquot of 0.050 mL of dog EDTA plasma was used for the assay. […] A 450 µï^ portion of the organic layer was removed and evaporated to dryness. The residue was reconstituted in 300 µl, of the reconstitution solution (30% acetonitrile in 10 mM NH40Ac with 0.01% acetic acid). All liquid transfer steps were performed using a Perkin Elmer JANUS Mini® liquid handler except for the addition of the internal standard solution. A 5 µï^ aliquot of the extracted sample was injected to uHPLC-MS/MS system. The uHPLC was performed on a LEAP 4X Ultra uHPLC system with LEAP HTC PAL autosampler. Mobile phase A contained 10 mM NH4OAc and 0.01% acetic acid in ACN/water (10:90), and mobile phase B contained 10 mM NH4OAc and 0.01% acetic acid in ACN/water (90: 10). […] The flow rate was 0.6 mL/min and column temperature was maintained at 60°C condition. Detection was accomplished using an AB Sciex Triple Quad 5500 mass spectrometer in positive ESI with turbo ion spray ionization and using multiple reaction monitoring (MRM) mode. […] Data acquisition and quantification were performed using AB Sciex Analyst® 1.5.1 software.

[3] = Equilibration and form conversion experiments of Compound of formula (V); type: physicochemical; settings: for Form by XRPD after equilibration: Ambient, 8 days
Protocol: Equilibration: Equilibration studies using single, binary and ternary combinations of batch solvents (water, acetone, and acetonitrile) were investigated to mimic key steps in manufacturing 3-(4-nitro-1-oxoisoindolin-2-yl)piperidine-2,6-dione. Materials of 3-(4-nitro-1-oxoisoindolin-2-yl)piperidine-2,6-dione and solvent or solvent mixtures were added to a glass vial to achieve free-flowing slurry and allowed to equilibrate at the specified temperature. After equilibration for 8 days, the solid phase was separated via filtration. The solid phase was then dried under air and analyzed by XRPD. List of Experimental Conditions for Equilibration:
A total of four batches of 3-(4-nitro-1-oxoisoindolin-2-yl)piperidine-2,6-dione were characterized by XRPD, DSC, TGA, ATR-FTIR and DVS, as described in section 6.5. The solid form represented by the batch 1 was designated as Form A ({drug5b}); the solid form represented by the batch 4 was designated as Form B ({drug5c}); the batches 2 and 3 were determined to be mixtures of Forms A and B, with Form B ({drug5c}) dominating the patterns. The equilibration experiments were performed using batches 2, 3 and 4, and the results are described in Table 2. Results for Equilibration Experiments:
Results from Additional Form conversion Experiments: […]

[4] = Hygroscopicity of forms of Compound of formula (V) (DVS); type: physicochemical; settings: between 0% and 90% relative humidity; 25°C
Protocol: Differential Scanning Calorimetry (DSC): DSC analyses were performed on a TA instrument Q2000 Differential Scanning Calorimeter. Indium was used as the calibration standard. Approximately 2-5 mg of sample was placed into a DSC pan. The sample was heated under nitrogen at a rate of 10°C/min, up to a final temperature of 350°C. Melting points were reported as the extrapolated onset temperatures. Thermogravimetric Analysis (TGA): TGA analyses were performed on a TA instrument Q5000 Thermogravimetric Analyzer. Calcium oxalate was used for a performance check. Approximately 2-10 mg of accurately weighed sample was placed on a pan and loaded into the TGA furnace. The sample was heated under nitrogen at a rate of 10°C/min, up to a final temperature of 300°C. Attenuated Total Reflection Fourier-Transform Infrared Analysis (ATR-FTIR): FTIR analyses were performed on the samples "as is" using an attenuated total reflection (ATR) attachment on a Nicolet 6700 FTIR spectrometer. After a background of ambient lab conditions was obtained, samples were placed on the ATR, compressed with the anvil, and spectrum acquired. Miniature Scanning Electron Microscope (Mini SEM) Morphology analysis of the samples was carried out on an Even Mini SEM. Small amounts of samples were dispersed on a sample holder, and then coating with gold viewed with 200x and 1000x magnification. Dynamic Vapor Sorption (DVS) Hygroscopicity was determined on a Surface Measurement Systems DVS. Typically a sample size of 5-30 mg was loaded into the DVS instrument sample pan and the sample was analyzed on a DVS automated sorption analyzer at 25°C. The relative humidity was increased from 0 % to 90 %RH at 10 %RH step. The relative humidity was then decreased in a similar manner to accomplish a full adsorption/desorption cycle. The entire scope of this invention is not limited by the specific examples described herein, but is more readily understood with reference to the appended claims.

[5] = Equilibration and form conversion experiments of Compound of formula (V); type: physicochemical; settings: for Form by XRPD after equilibration: 6 hours; for XRPD Result after form conversion experiment: Heated to 220 °C for 4 hours
[6] = Salt screening and crystalline salt characterization of Compound (VI); settings: for Hygroscopicity: ambient temperature and relative humidity conditions, hemisulfate salt
Protocol: The screening examined acid type, acid level (equivalents), and/or type of crystallization solvent. Each plate contained 96 well plates (8 rows of 12 columns per plate). […] The solution (12.5 mL) was transferred to 24 vials. To each vial was added 0.25 M EtOH stock solutions of the following acids:
The content of each vial was transferred to 12 crystallization wells and evaporated to dryness. Upon evaporation, each well was charged with 100 µl of solvent using a robotic liquid handler. The following crystallization solvents were tested: methyl isobutyl ketone (MIBK), ethyl acetate, toluene, THF, acetonitrile, acetone, isopropanol, ethanol, methanol, 1,2-dichloroethylene, isopropanol/water (50:50), and water. Next, the plates were sealed with Teflon septa and subjected to temperature cycling. […] After the heating/cooling cycle, the contents of the wells were characterized by birefringent imaging. Perceived crystalline hits were further characterized by PXRD analysis.

SMILES: N#Cc1ccc([C@H]2CCc3cncn32)c(F)c1 [Compound (III), 4-(R)-(6,7-Dihydro-5H-pyrrolo[1,2-c]imidazol-5-yl)-3-fluoro-benzonitrile]
Moisture gain (r.h. 0%): 0.0%
Moisture gain (r.h. 5%): 0.0%
Moisture gain (r.h. 25%, listed as free base): 0.1%
Moisture gain (r.h. 50%, listed as free base): 0.2%
Moisture gain (r.h. 75%, listed as free base): 0.3%
Moisture gain (r.h. 85%, listed as free base): 0.5%
Moisture gain (r.h. 95%, listed as free base): 1.0%
solubility (physchem; acetone, 25 °C, organic solvent or mixture): > 50 mg/mL
solubility (physchem; aqueous solvent, pH 1, 25 °C, pH 1, simulated gastric fluid, pH 1): > 50 mg/mL
solubility (physchem; ethanol, 25 °C, organic solvent or mixture): > 50 mg/mL
solubility (physchem; ethyl acetate, 25 °C, organic solvent or mixture): > 50 mg/mL
Solubility in water at the 0.1% target concentration [1]: largely insoluble

SMILES: N[C@@H]1c2cccnc2[C@H](OC(=O)N2CCC(n3c(=O)[nH]c4ncccc43)CC2)CC[C@H]1c1cccc(F)c1F [Compound (VI), N-(5S,6S,9R)-5-amino-6-(2,3-10-difluorophenyl)-6,7,8,9-tetrahydro-5H-cyclohepta[b]pyridin-9-yl-4-(2-oxo-2,3-dihydro-1H-imidazo[4,5-b]pyridin-1-yl)piperidine-1-carboxylate]
bioavailability ([2]; listed as Compound (VI) free base): 4.54%

Form conversion to other forms ([3]; form conversion studies): no conversion
total mass change [4]: 0.42%
SMILES: O=C1CCC(N2Cc3c(cccc3[N+](=O)[O-])C2=O)C(=O)N1 (centres unmarked) [Form A ({drug5b}), 3-(4-nitro-1-oxoisoindolin-2-yl)piperidine-2,6-dione]

Form by XRPD after equilibration ([3]; Acetone/water (1:1)): converts to Form A
Form by XRPD after equilibration ([3]; Acetonitrile/water (1:1)): converts to Form A
Form by XRPD after equilibration ([3]; Acetonitrile/water/acetone (1:1:1)): converts to Form A
Form by XRPD after equilibration ([3]; acetone): converts to Form A
Form by XRPD after equilibration ([3]; water): converts to Form A
total mass change [4]: 0.39%
Form by XRPD after equilibration ([5]; Acetonitrile, 80 °C (or reflux)): converts to Form A
Form by XRPD after equilibration ([5]; Acetonitrile/water (2:1), 60 °C): converts to Form A
XRPD Result after form conversion experiment [5]: converts to Form A
SMILES: O=C1CCC(N2Cc3c(cccc3[N+](=O)[O-])C2=O)C(=O)N1 (centres unmarked) [Form B ({drug5c}), 3-(4-nitro-1-oxoisoindolin-2-yl)piperidine-2,6-dione]

total mass change [4]: 0.43%
XRPD Result after form conversion experiment [5]: partially converts to Form A
Form conversion ([5]; ambient temperature, NMP/acetone/water (1:2.5:2.5), time not stated): converts to Form A
SMILES: O=C1CCC(N2Cc3c(cccc3[N+](=O)[O-])C2=O)C(=O)N1 (centres unmarked) [Form C ({drug5d}), 3-(4-nitro-1-oxoisoindolin-2-yl)piperidine-2,6-dione]

SMILES: N[C@@H]1c2cccnc2[C@H](OC(=O)N2CCC(n3c(=O)[nH]c4ncccc43)CC2)CC[C@H]1c1cccc(F)c1F [hemisulfate salt of Compound (VI), (5S,6S,9R)-5-amino-6-(2,3-dfluorophenyl)-6,7,8,9-tetrahydro-5H-cyclohepta[b] pyridin-9-yl 4-(2-oxo-2,3-dihydro-1 H-imidazo[4,5-b]pyridin-1-yl)piperidine-1-carboxylate, hemisulfate salt]
Chemical stability [6]: chemically stable
Physical stability [6]: physically stable
Hygroscopicity [6]: low hygroscopicity
Hygroscopicity ([6]; listed as Sulfuric acid): low/non-hygroscopic at ambient temperatures and relative humidity conditions
bioavailability ([2]; hemisulfate salt): 34.73%
